Where two headings read alike, the source gives them in different places.
Tests used:
human FXIa = human FXIa (Homo sapiens, UniProt P03951); experiment: In vitro activated factor XI (FXIa) inhibition test; type: biochemical
Method: To the substrate, S-2366 (pyroGlu-Pro-Arg-pNA•HCl) was added to a final concentration of 300 µmol/L. After the reaction had progressed, the absorbance at OD 405 nm was measured. […]

[1] = Ester metabolism stabilization test: stabilization in human plasma test; type: in vitro ADME; conditions: 37°C, 30 minutes
Method: 198 µL of human plasma (manufactured by Cosmo Bio) was added to 2 µL of a DMSO solution containing 100 µmol/L test substance, and the obtained mixture was then incubated at 37°C for 30 minutes. After completion of the incubation, 600 µL of acetonitrile was added to the reaction solution, so that the metabolic reaction was terminated. The residual percentage of the test substance was measured using LC (LC-20A manufactured by Shimadzu Corporation) and -MS (API4000 manufactured by AB Sciex).

[2] = Ester metabolism stabilization test: human liver stabilization test; type: in vitro ADME; conditions: human liver S9 with NADPH, 37°C, 30 minutes
Method: A reaction solution prepared by mixing 5 µL of human liver S9 (manufactured by Xenotech, 20 mg/mL), 20 µL of 500 mmol/L Kpi (pH7.4), 40 µL of 5 mmol/L NADPH (manufactured by Oriental Yeast Co., Ltd.) aqueous solution, and 133 µL of ion exchange water was added to 2 µL of a DMSO solution containing 100 µmol/L test substance, and the thus obtained mixture was then incubated at 37°C for 30 minutes. After completion of the incubation, 600 µL of acetonitrile was added to the reaction solution, so that the metabolic reaction was terminated. The residual percentage of the test substance was measured using LC (LC-20A manufactured by Shimadzu Corporation) and -MS (API4000 manufactured by AB Sciex).

[3] = 0.35 µg/mL human FXIa, substrate S-2366 300 µmol/L, 37°C, 10 minutes, OD 405 nm, read-out: FXIa inhibitory activity IC50

Sequence of human FXIa (P03951 388-625 limits assumed): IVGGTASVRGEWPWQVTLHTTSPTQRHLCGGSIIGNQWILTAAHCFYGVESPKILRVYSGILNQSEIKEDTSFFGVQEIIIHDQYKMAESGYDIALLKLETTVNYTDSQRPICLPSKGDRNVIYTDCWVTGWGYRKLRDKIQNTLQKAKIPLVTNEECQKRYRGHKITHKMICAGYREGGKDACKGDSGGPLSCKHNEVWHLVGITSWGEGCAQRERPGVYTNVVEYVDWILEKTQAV
Sequence of human FXIa (P03951 19-387 partner limits assumed): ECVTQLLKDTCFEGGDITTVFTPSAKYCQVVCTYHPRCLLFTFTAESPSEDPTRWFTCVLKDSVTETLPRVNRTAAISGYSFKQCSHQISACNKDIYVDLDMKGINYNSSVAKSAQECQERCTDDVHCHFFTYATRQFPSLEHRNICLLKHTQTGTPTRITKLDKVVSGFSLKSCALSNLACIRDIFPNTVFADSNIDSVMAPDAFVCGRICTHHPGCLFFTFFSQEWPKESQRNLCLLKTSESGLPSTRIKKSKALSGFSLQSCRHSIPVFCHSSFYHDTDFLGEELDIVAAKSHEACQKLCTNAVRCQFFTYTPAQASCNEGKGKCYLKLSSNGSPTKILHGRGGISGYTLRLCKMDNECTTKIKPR

| Structure (SMILES) | IC50 (human FXIa) | Residual percentage (%) Human plasma [1] | Residual percentage (%) Human liver S9 [2] | IC50 (human FXIa; [3]) |
| --- | --- | --- | --- | --- |
| N[C@H](CF)[C@H]1CC[C@H](C(=O)N2CC[C@@H](C3CCCCC3)[C@H]2C(=O)Nc2ccc3oc(C(=O)OCC4CCOCC4)cc3c2)CC1 [compound 141] | 3.45 µM | 94% | 17% |  |
| COC1CCC([C@@H]2CCN(C(=O)[C@H]3CC[C@H]([C@H](N)CF)CC3)[C@@H]2C(=O)Nc2ccc3oc(C(=O)OCC(C)C)cc3c2)CC1 (stereo partly drawn) [compound 201] |  | 85% | 45% | 4.1 µM |
| Cc1oc(=O)oc1COC(=O)c1cc2cc(NC(=O)[C@@H]3[C@@H](c4ccccc4)CCN3C(=O)[C@H]3CC[C@H]([C@H](N)CF)CC3)ccc2[nH]1 [compound 171] |  | <1% | 18% | 0.3 µM |
| COCCCOC(=O)c1cc2cc(NC(=O)[C@@H]3[C@H](C4CCCCC4)CCN3C(=O)[C@H]3CC[C@H]([C@H](N)CF)CC3)ccc2o1 [compound 82] |  | 92% | 5.8% |  |
| CCC(=O)OC(OC(=O)c1cc2cc(NC(=O)[C@@H]3[C@@H](c4ccccc4)CCN3C(=O)[C@H]3CC[C@H]([C@H](N)CF)CC3)ccc2[nH]1)C(C)C (stereo partly drawn) [compound 125] |  | 86% | 5.6% |  |
| CC(OC(=O)OC1CCCCC1)OC(=O)c1cc2cc(NC(=O)[C@@H]3[C@@H](c4ccccc4)CCN3C(=O)[C@H]3CC[C@H]([C@H](N)CF)CC3)ccc2[nH]1 (stereo partly drawn) [compound 120] |  | 65% | 4.9% |  |

Source: EP2876105A1, “1-(CYCLOALKYL-CARBONYL)PROLINE DERIVATIVE” (Sumitomo Dainippon Pharma Co., Ltd., priority 2012, dated 2014)
